Test results reported in publication PMC12736194, “1-Azinyl-1′-Alkenylferrocenes with Anticholinesterase, Antioxidant, and Antiaggregating Activities as Multifunctional Agents for Potential Treatment of Alzheimer’s Disease” (Pharmaceuticals, 2025).

How the values were obtained:
[1] = cited from earlier work
EcBChE = molecular target: T1, EcBChE (Equus caballus, UniProt P81908); assay: Kinetic study of EcBChE inhibition (Lineweaver-Burk); type: biochemical
T1 construct: equine (Equus caballus) serum BChE (EcBChE); purchased Sigma-Aldrich; host or cells: horse serum
Procedure: (§1) . To determine the relationship between enzyme activity and inhibitor concentration at different substrate levels, we conducted kinetic assays. The kinetic data analysis, using Lineweaver–Burk plots, is shown in Figure 2A and Figure 2B for HsAChE and EcBChE, respectively.
(§2) To investigate the mechanisms of HsAChE and EcBChE inhibition, enzyme kinetics were analyzed (detailed in [92]). After a 5 min equilibration at 25 °C with three different inhibitor concentrations and six substrate concentrations, residual enzyme activity was measured as described. Lineweaver–Burk plots (1/V vs. 1/[S]) were used to determine competitive (Ki) and non-competitive (αKi) inhibition constants.

[2] = molecular target: T2, peripheral anionic site (PAS) of Electrophorus electricus AChE (EeAChE) (Electrophorus electricus, UniProt O42275); assay: Propidium displacement from the EeAChE PAS (fluorescence); type: binding; conditions: compound concentration 20 µM; EeAChE 7 μM, propidium iodide 8 μM, Tris-HCl pH 8.0; n.a. = not active
T2 construct: purchased Sigma-Aldrich type VI-S
Procedure: A fluorescence-based assay assessed the ability of test compounds to competitively displace propidium iodide from AChE’s PAS [65, 93]. […] EeAChE (7 μM) was incubated with 20 μM test compounds in Tris-HCl buffer (pH 8.0) for 15 min, followed by addition of propidium iodide (8 μM) as described in detail in [95]. Fluorescence readings (530 nm excitation, 600 nm emission) were obtained using a FLUOStar Optima microplate reader (LabTech, Ortenberg, Germany). Displacement (%) was calculated.

[3] = system: human neuroblastoma cell cultures (SH-SY5Y); assay: Cytotoxicity, MTT test, SH-SY5Y; conditions: read-out: Cytotoxic activity, LC50, SH-SY5Y, 24 h, 1 to 1024 μM, mean ± SE, n = 3
Procedure: (§3) Cytotoxic activity was assessed using the MTT test. […] For each compound, the half-lethal concentration parameter LC50 (μM) was calculated.
(§4) This study employed SH-SY5Y neuroblastoma cells and dental pulp-derived mesenchymal stem cells (MSC-DP). Cells were cultured in DMEM/F12 with 10% (v/v) FBS under standard conditions. MSC-DP were reprogrammed into neuronal-like cells (MSC-Neu) using Neurobasal medium with addition of Neuromax and 3% (v/v) FBS for 5 days.
(§5) The cytotoxic effect of Fcs was assessed using the Mossman test for cellular dehydrogenase activity (MTT test). […] For each compound, the half-lethal concentration parameter (LC50) in μM was calculated as described previously.

[4] = molecular target: T3, human β-amyloid (1–42) (HsAβ42) (Homo sapiens, UniProt P05067); assay: Inhibition of HsAβ42 self-aggregation (thioflavin T fluorescence); type: biochemical; conditions: HsAβ42 50 µM, compound 100 µM, 24 h, 37 °C; n.a. = not active
T3 construct: purchased AnaSpec Inc
Procedure: The potential of compounds from all three groups (1a-e, 5a-e, 7a-d) to inhibit HsAβ42 self-aggregation was evaluated using a Thioflavin T (ThT) fluorescence assay.
Inhibition of HsAβ42 self-aggregation by test compounds was studied using the thioflavin T (ThT) fluorescence method with minor modifications as described in detail in [79]. Lyophilized HFIP-pretreated HsAβ42 (AnaSpec Inc., Fremont, CA, USA, 0.5 mg) was dissolved in DMSO to obtain a stable 500 μM solution. The samples of 50 μM HsAβ42 in 215 mM Na-phosphate buffer pH 8.0 were incubated for 24 h at 37 °C in the absence or presence of 100 μM test compounds. Myricetin in the same concentration was used as a reference. After incubation, 5 μM ThT in 50 mM glycine-NaOH buffer pH 8.5 was added, and the fluorescence was measured at 440 nm (exc.) and 485 nm (emis.) with a FLUOStar Optima microplate reader. Blanks consisted of 215 mM Na-phosphate buffer, pH 8.0, 20% (v/v) DMSO or test compounds, respectively. The inhibition (%) of HsAβ42 self-aggregation by the test compounds was calculated.

[5] = system: porcine (Sus scrofa) liver CES (SsCES); assay: Inhibition of SsCES (spectrophotometric, 4-NPA substrate); type: biochemical; conditions: compound 20 μM; n.a. = not active; mean ± SEM, n = 3
From the text: (§6) In these experiments, human (Homo sapiens) erythrocyte AChE (HsAChE), equine (Equus caballus) serum BChE (EcBChE), and porcine (Sus scrofa) liver CES (SsCES) were used because of their ready availability, relatively low cost, and high sequence homology of EcBChE and SsCES to the corresponding human enzymes.
Although the dominant carboxylesterase in porcine liver is CES1 [64], the preparation sourced from Sigma-Aldrich is not a purified or recombinant CES1. Therefore, we have designated the preparation used in our experimental studies as SsCES. However, in computational molecular docking studies, it is necessary to choose a single defined protein as the docking target. Thus, the logical choice for our computational studies of CES was the most abundant and best characterized isoform found in porcine liver, which is SsCES1.
(§7) Enzymes, substrates, and reference compounds were sourced from Sigma-Aldrich (St. Louis, MO, USA). Enzyme activity was measured spectrophotometrically according to [91] using ATCh iodide, BTCh iodide, and 4-NPA as substrates for HsAChE, EcBChE, and SsCES, respectively. Experimental conditions included a K/Na-phosphate buffer (100 mM), at 25 °C, with pH 7.5 for AChE and BChE assays, and pH 8.0 for CES assays. Measurements were conducted on a BioRad Benchmark Plus microplate spectrophotometer (Hercules, CA, USA). Test compounds were dissolved in DMSO with a final solvent concentration of 2% (v/v) in the incubation mixture.

[6] = system: reprogrammed human neuronal cell cultures (MSC-Neu); assay: Cytotoxicity, MTT test, MSC-Neu; conditions: read-out: Cytotoxic activity, LC50, MSC-Neu, 24 h, 1 to 1024 μM, mean ± SE, n = 3
Procedure: as §3, §4, §5

HsAChE = molecular target: T4, HsAChE (Homo sapiens, UniProt P22303); assay: Kinetic study of HsAChE inhibition (Lineweaver-Burk); type: biochemical
T4 construct: human (Homo sapiens) erythrocyte AChE (HsAChE); purchased Sigma-Aldrich; host or cells: human erythrocytes
Procedure: as §1, §2

[7] = molecular target: T5, equine (Equus caballus) serum BChE (EcBChE) (Equus caballus, UniProt P81908); assay: Inhibition of EcBChE (spectrophotometric, BTCh iodide substrate); type: biochemical; conditions: K/Na-phosphate buffer pH 7.5, 25 °C; mean ± SEM, n = 3
T5 construct: equine (Equus caballus) serum BChE (EcBChE); purchased Sigma-Aldrich; host or cells: horse serum
Procedure: as §6, §7

[8] = Ferric reducing antioxidant power (FRAP) assay; conditions: Trolox equivalents; acetate buffer pH 3.6, 1 h, 37 °C
[9] = ABTS radical cation scavenging activity assay; conditions: ethanol, 1 h
[10] = molecular target: T6, human (Homo sapiens) erythrocyte AChE (HsAChE) (Homo sapiens, UniProt P22303); assay: Inhibition of HsAChE (spectrophotometric, ATCh iodide substrate); type: biochemical; conditions: K/Na-phosphate buffer pH 7.5, 25 °C; mean ± SEM, n = 3
T6 construct: human (Homo sapiens) erythrocyte AChE (HsAChE); purchased Sigma-Aldrich; host or cells: human erythrocytes
Procedure: as §6, §7

T1 sequence (P81908 whole entry): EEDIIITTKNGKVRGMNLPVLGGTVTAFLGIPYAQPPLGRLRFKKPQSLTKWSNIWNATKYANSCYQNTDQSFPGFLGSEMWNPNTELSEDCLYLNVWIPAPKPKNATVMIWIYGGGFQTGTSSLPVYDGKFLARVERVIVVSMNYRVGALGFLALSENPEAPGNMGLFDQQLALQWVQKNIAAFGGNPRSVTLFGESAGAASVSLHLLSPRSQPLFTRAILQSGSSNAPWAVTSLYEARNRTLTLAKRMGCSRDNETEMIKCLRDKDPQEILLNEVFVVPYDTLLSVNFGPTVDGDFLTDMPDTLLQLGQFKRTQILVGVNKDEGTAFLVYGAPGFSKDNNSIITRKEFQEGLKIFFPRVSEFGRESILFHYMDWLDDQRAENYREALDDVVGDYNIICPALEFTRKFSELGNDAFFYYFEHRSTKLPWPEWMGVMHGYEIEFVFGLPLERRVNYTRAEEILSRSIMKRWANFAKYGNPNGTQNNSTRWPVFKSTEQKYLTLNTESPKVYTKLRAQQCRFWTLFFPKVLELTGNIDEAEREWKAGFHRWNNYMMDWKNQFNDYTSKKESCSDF
T4 sequence (P22303 32-617 isoform P22303-2 limits assumed): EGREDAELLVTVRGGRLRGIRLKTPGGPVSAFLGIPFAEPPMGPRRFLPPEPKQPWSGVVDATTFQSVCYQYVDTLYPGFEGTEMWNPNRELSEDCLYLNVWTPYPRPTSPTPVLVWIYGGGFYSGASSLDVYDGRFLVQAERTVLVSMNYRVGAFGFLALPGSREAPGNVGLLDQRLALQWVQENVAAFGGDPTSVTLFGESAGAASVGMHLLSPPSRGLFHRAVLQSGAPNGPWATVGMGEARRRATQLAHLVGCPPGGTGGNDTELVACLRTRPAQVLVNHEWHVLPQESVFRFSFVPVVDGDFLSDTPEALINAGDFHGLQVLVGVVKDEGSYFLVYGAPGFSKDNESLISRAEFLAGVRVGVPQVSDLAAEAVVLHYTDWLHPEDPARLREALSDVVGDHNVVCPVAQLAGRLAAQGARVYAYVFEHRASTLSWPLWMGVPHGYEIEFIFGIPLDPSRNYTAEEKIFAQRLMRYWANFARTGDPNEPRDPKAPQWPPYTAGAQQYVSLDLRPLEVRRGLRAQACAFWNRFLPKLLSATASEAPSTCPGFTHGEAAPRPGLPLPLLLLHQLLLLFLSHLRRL
T3 sequence (P05067 672-713 limits assumed): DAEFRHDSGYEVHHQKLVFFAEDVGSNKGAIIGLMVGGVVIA
T5 sequence (P81908 whole entry): as the sequence (P81908 whole entry) above
T6 sequence (P22303 32-617 isoform P22303-2 limits assumed): as the sequence (P22303 32-617 isoform P22303-2 limits assumed) above
T2 sequence (O42275 24-633): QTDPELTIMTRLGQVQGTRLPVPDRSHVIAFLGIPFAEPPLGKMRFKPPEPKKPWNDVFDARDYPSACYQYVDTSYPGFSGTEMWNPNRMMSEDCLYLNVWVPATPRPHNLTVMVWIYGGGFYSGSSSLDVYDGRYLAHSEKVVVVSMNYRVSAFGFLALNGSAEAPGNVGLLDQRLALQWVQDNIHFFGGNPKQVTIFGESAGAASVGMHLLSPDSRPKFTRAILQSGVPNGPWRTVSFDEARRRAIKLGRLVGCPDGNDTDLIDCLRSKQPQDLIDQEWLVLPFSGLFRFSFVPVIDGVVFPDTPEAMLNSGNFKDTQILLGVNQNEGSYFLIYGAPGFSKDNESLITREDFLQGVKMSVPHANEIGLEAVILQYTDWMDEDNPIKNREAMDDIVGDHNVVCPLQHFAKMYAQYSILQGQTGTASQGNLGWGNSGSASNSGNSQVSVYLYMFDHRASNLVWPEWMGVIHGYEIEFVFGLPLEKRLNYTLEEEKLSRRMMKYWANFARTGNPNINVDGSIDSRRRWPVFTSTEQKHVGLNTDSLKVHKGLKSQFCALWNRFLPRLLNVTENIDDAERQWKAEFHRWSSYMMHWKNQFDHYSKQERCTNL

c1ccc(-c2ccccn2)nc1 [Bipyridine]
Experimental pKa [1]: 4.35

C=C[c-]1cccc1.[Fe+2].c1ccc2nc(-[c-]3cccc3)ccc2c1 [7b, 1-(Quinolin-2-yl)-1′-Vinylferrocene]
noncompetitive component of inhibition constant (αKi), EcBChE (EcBChE): 4.58 ± 0.27 µM | type of inhibition, EcBChE (EcBChE; Vmax and Km both change): mixed type of inhibition | Ki (EcBChE; read-out: competitive component of inhibition constant (Ki), EcBChE): 2.77 ± 0.22 µM | Propidium Displacement, (%) [2]: 7.7 ± 0.6% | CC50 [3]: 287 ± 31.7 µM | HsAβ42 self-Aggregation Inhibition, (%) [4]: 89.6 ± 6.2% | Inhibition of SsCES, % inhibition at 20 μM [5]: 29.8 ± 2.6% | CC50 [6]: 277 ± 14.8 µM | noncompetitive component of inhibition constant (αKi), HsAChE (HsAChE): 3.05 ± 0.18 µM | type of inhibition, HsAChE (HsAChE; Vmax and Km both change): mixed type of inhibition | Ki (HsAChE; read-out: competitive component of inhibition constant (Ki), HsAChE): 1.92 ± 0.13 µM | IC50 [7]: 3.68 ± 0.29 µM | Ferric Reducing Antioxidant Power, TE [8]: 2.21 ± 0.02 | IC50 ([9]; ABTS^•+ 100 μM): 5.3 ± 0.2 µM | ABTS^•+-Scavenging Activity, TEAC ([9]; Trolox equivalent antioxidant capacity, mean ± SEM, n = 3): 4.4 ± 0.2 | IC50 [10]: 3.32 ± 0.23 µM
